In brackets after ≈: the same amount, converted by molar mass.
How the values were obtained:
[1] = Thermodynamic solubility in water and bio-media (SGF, FaSSIF, FeSSIF) at 37° C.; type: physicochemical; conditions: for pH / FC (Form Change) / solubility at 1 h / solubility at 4 h / solubility at 24 h: 37° C.; for pH: filtrate of supernatant; for solubility at 1 h / solubility at 4 h / solubility at 24 h: thermodynamic from solid
Method: Specifically, about 40 mg samples (calculated with freebase) were added to 4.0 mL of each buffer. After shaking at 100 rpm at 37° C. for 1/4/24 hour(s), about 1.0 mL of each suspension was centrifuged for 5 minutes. The solids were analyzed by XRPD for crystal form, and the filtrates of supernatants were detected by HPLC for solubility and by pH meter for pH value.

[2] = PK study in Cynomolgus macaques, PO single dose; type: in vivo, Cynomolgus macaques (Macaca fascicularis); conditions: for exposure (AUC) compared to the free form, in words: Cynomolgus monkeys, monophosphate; for AUC(0-inf) / AUC(0-t) / Cmax: male, cynomolgus monkey, blood
Method: A PK Study of Crystalline form of 1:1 compound (I) Phosphate and compound (I) crystal form was conducted in Cynomolgus macaques (Cynomolgus non-human primates; Macaca fascicularis). […] Blood samples were collected at 0.25, 0.5, 1, 2, 4, 6, 8 and 24 hours, and were analyzed to determine Cmax and exposure (AUC).

[3] = Hygroscopicity by dynamic vapor sorption (DVS); conditions: for weight gain: DVS, 25° C., at 90% RH; for hygroscopicity compared with the citrate salt, in words: monophosphate
Method: Dynamic vapor sorption (DVS) was performed with an ADVENTURE series DVS at 25° C. under nitrogen blow. Approximately 30 milligrams of material was used.

pKa of the freebase form = type: physicochemical; conditions: basic
[4] = simulated gastric fluid, SGF, 1 Hr
[5] = simulated gastric fluid, SGF, 4 Hrs
[6] = simulated gastric fluid, SGF, 24 Hrs
[7] = Cynomolgus macaques, 10 mg/Kg PO single dose
[8] = Cynomolgus macaques, 100 mg/Kg PO single dose

Cn1c(Nc2nc3ccccc3o2)nc2cc(C(=O)NCCOCCO)ccc21.O=P(O)(O)O [1:1 Compound (I) Phosphate, 2-[(1,3-benzoxazol-2-yl)amino]-N-[2-(2-hydroxyethoxy)ethyl]-1-methyl-1H-benzimidazole-5-carboxamide monophosphate]
solubility compared to Compound (I), in words ([1]; FaSSIF and SGF): improved solubility | pH ([1]; FaSSIF, 1 Hr): 2.37 | FC (Form Change) ([1]; FaSSIF, 1 Hr, solid by XRPD): Yes | pH ([1]; FaSSIF, 4 Hrs): 2.37 | pH ([1]; FaSSIF, 24 Hrs): 2.36 | pH ([1]; FeSSIF, 1 Hr): 4.06 | FC (Form Change) ([1]; FeSSIF, 1 Hr, solid by XRPD): Yes | pH ([1]; FeSSIF, 4 Hrs): 4.21 | pH ([1]; FeSSIF, 24 Hrs): 4.31 | FC (Form Change) ([1]; SGF, 1 Hr): Clear | pH ([1]; SGF, 1 Hr): 1.36 | FC (Form Change) ([1]; SGF, 4 Hrs): Clear | pH ([1]; SGF, 4 Hrs): 1.37 | FC (Form Change) ([1]; SGF, 24 Hrs): Clear | pH ([1]; SGF, 24 Hrs): 1.41 | solubility at 1 h [1, 4]: > 25900 µg/mL | solubility at 4 h [1, 5]: > 28400 µg/mL | solubility at 24 h [1, 6]: > 28400 µg/mL | solubility at 1 h ([1]; FaSSIF, 1 Hr): 190 µg/mL | solubility at 4 h ([1]; FaSSIF, 4 Hrs): 180 µg/mL | solubility at 24 h ([1]; FaSSIF, 24 Hrs): 70 µg/mL | solubility at 1 h ([1]; FeSSIF, 1 Hr): 1400 µg/mL | solubility at 4 h ([1]; FeSSIF, 4 Hrs): 770 µg/mL | solubility at 24 h ([1]; FeSSIF, 24 Hrs): 390 µg/mL | solubility at 1 h ([1]; water, 1 Hr): 4390 µg/mL | solubility at 4 h ([1]; water, 4 Hrs): 3230 µg/mL | solubility at 24 h ([1]; water, 24 Hrs): 2060 µg/mL | solubility compared to the free form, in words ([1]; water and bio-relevant media): significant solubility improvement | pH ([1]; water, 1 Hr): 2.05 | FC (Form Change) ([1]; water, 1 Hr, solid by XRPD): Yes | pH ([1]; water, 4 Hrs): 2.04 | pH ([1]; water, 24 Hrs): 1.97 | higher exposure compared to free form Compound (I) ([2]; Cynomolgus macaques, 10 and 100 mpk oral dose): 1.5 times | Cmax compared to the free form, in words ([2]; Cynomolgus macaques, Table 7): roughly double | exposure (AUC) compared to the free form, in words ([2]; 10 and 100 mpk oral dose, listed as phosphate salt): roughly double | exposure (AUC) compared to the free form, in words ([2]; 10 and 100 mpk oral dose): roughly twice the exposure | AUC(0-inf) [2, 7]: 3590 ng·h/mL | AUC(0-t) [2, 7]: 3480 ng·h/mL | Cmax [2, 7]: 322 ng/mL | AUC(0-inf) [2, 8]: 9330 ng·h/mL | AUC(0-t) [2, 8]: 7580 ng·h/mL | Cmax [2, 8]: 723 ng/mL | weight gain [3]: 0.835% | hygroscopicity compared with the citrate salt, in words ([3]; listed as phosphate salt): lower hygroscopicity | hygroscopicity compared with the citrate salt, in words [3]: low hygroscopicity

Citrate
weight gain [3]: 3.223%

Cn1c(Nc2nc3ccccc3o2)nc2cc(C(=O)NCCOCCO)ccc21 [Compound (I), 2-[(1,3-benzoxazol-2-yl)amino]-N-[2-(2-hydroxyethoxy)ethyl]-1-methyl-1H-benzimidazole-5-carboxamide]
pKa (pKa of the freebase form): ~2.75 | pH ([1]; FaSSIF, 1 Hr): 6.30 | FC (Form Change) ([1]; FaSSIF, 1 Hr, solid by XRPD): No | pH ([1]; FaSSIF, 4 Hrs): 6.35 | FC (Form Change) ([1]; FaSSIF, 4 Hrs, solid by XRPD): No | pH ([1]; FaSSIF, 24 Hrs): 5.99 | FC (Form Change) ([1]; FaSSIF, 24 Hrs, solid by XRPD): No | pH ([1]; FeSSIF, 1 Hr): 4.78 | FC (Form Change) ([1]; FeSSIF, 1 Hr, solid by XRPD): No | pH ([1]; FeSSIF, 4 Hrs): 4.73 | FC (Form Change) ([1]; FeSSIF, 4 Hrs, solid by XRPD): No | pH ([1]; FeSSIF, 24 Hrs): 4.81 | FC (Form Change) ([1]; FeSSIF, 24 Hrs, solid by XRPD): No | FC (Form Change) ([1]; SGF, 1 Hr): No | pH ([1]; SGF, 1 Hr): 2.34 | FC (Form Change) ([1]; SGF, 4 Hrs): No | pH ([1]; SGF, 4 Hrs): 2.16 | FC (Form Change) ([1]; SGF, 24 Hrs): No | pH ([1]; SGF, 24 Hrs): 2.51 | solubility at 1 h [1, 4]: 7040 µg/mL (≈ 17.8 mM) | solubility at 4 h [1, 5]: 6860 µg/mL (≈ 17.3 mM) | solubility at 24 h [1, 6]: 7080 µg/mL (≈ 17.9 mM) | pH ([1]; water, 1 Hr): 5.69 | FC (Form Change) ([1]; water, 1 Hr, solid by XRPD): No | pH ([1]; water, 4 Hrs): 5.07 | FC (Form Change) ([1]; water, 4 Hrs, solid by XRPD): No | pH ([1]; water, 24 Hrs): 5.95 | FC (Form Change) ([1]; water, 24 Hrs, solid by XRPD): No | AUC(0-inf) [2, 7]: 2030 ng·h/mL | AUC(0-t) [2, 7]: 1920 ng·h/mL | Cmax [2, 7]: 164 ng/mL | AUC(0-inf) [2, 8]: 4740 ng·h/mL | AUC(0-t) [2, 8]: 4080 ng·h/mL | Cmax [2, 8]: 350 ng/mL

— US20240300933A1, “SALT AND CRYSTAL FORMS OF AN HMOX1 INDUCER” (MITOBRIDGE INC., priority 2021, published 2024)
